Where two headings read alike, the source gives them in different places.
Legend:
[1] = tested on: Abeta oligomer-induced membrane trafficking deficits in primary hippocampal neurons; assay: Membrane Trafficking/Exocytosis (MTT) assay, Abeta oligomer effect on neurons; format: cell-based, rat; conditions: membrane trafficking, read-out: EC50 Abeta;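 also: compound potency for inhibiting the Abeta oligomer effect on exocytosis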
Description: Compounds according to any embodiment described herein, were tested for their ability to inhibit an amyloid beta effect on the cells. The compounds generally were able to inhibit the amyloid beta effect as measured by a membrane trafficking/exocytosis assay (MTT assay). The rationale for this assay was as follows:
The present exocytosis assay was adapted for use with mature primary neuronal cultures grown for 3 weeks in vitro. See WO 2011/106785, which is incorporated herein by reference in its entirety. Abeta oligomers cause a dose-dependent decrease in the amount of intracellular vesicles (puncta) filled with reduced purple formazan as measured via image processing using a Cellomics VTI automated microscopy system. […] Increasing the amount of Abeta oligomers eventually results in overt toxicity. Thus, the concentration of neuroactive Abeta oligomers used in the assay is much lower than that causing cell death. […] When configured in this manner, the assay is able to detect compounds that inhibit nonlethal effects of Abeta oligomer whether these compounds act via disruption of oligomers, inhibition of oligomer binding to neurons, or counteraction of signal transduction mechanisms of action initiated by oligomer binding.
Primary hippocampal neurons from E18 Sprague-Dawley rat embryos were plated at optimized concentrations in 384 well plates in NB media (Invitrogen). Neurons were maintained in cultures for 3 weeks, with twice weekly feeding of NB media with N2 supplement (Invitrogen).
A test compound was added to cells at concentrations ranging from 100 uM to 0.001 nM followed by addition of vehicle or Abeta oligomer preparations (3 μM total Abeta protein concentration), and incubated for 1 to 24 hr at 37° C. in 5% CO2. MTT reagent (3-(4,5-dimethylthizaol-2yl)-2,5diphenyl tetrazolium bromide) (Roche Molecular Biochemicals) was reconstituted in phosphate buffered saline to 5 mg/mL. 10 μL of MTT labeling reagent is added to each well and incubated at 37° C. for 1 h, then imaged. Exocytosis was assessed by automated microscopy and image processing to quantify the amount of endocytosed and exocytosed formazan.
Each assay plate was formatted so that compounds are tested with and without Abeta oligomer on each plate. This design eliminates toxic or metabolically active compounds early on in the screening cascade (at the level of the primary screen). Reduced formazan was first visible in intracellular vesicles. Eventual formazan exocytosis was accelerated via Abeta oligomers.
Human amyloid peptide 1-42 was obtained from a number of commercial vendors such as California Peptide, with lot-choice contingent upon quality control analysis. Quality controls of oligomer preparations consist of Westerns to determine oligomer size ranges and relative concentrations, and the MTT assay to confirm exocytosis acceleration without toxicity. Toxicity was monitored in each image-based assay via quantification of nuclear morphology visualized with the DNA binding blue dye DAPI (Invitrogen). Nuclei that are fragmented are considered to be in late stage apoptosis (Majno and Joris '95) and the test would be rejected. Peptide lots producing unusual peptide size ranges or significant toxicity at a standard 1.5 μM concentration on neurons would also be rejected.
Data handling and analysis were accomplished by Cellomics VTI image analysis software and STORE automated database software. Because of the low dynamic range and neuronal well-to-well variability after three weeks in culture, statistical comparisons are made via pairwise Tukey-Kramer analysis to determine the significance of the separation between compound+Abeta oligomers from Abeta alone, and between compound alone from vehicle. The ability of mature primary neurons to more closely approximate the electrophysiologically mediated signal transduction network of the adult brain justifies this screening strategy. […]

[2] = log P; format: physicochemical
Method in brief: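 Ratio of un-ionized compound concentrations between octanol and water, with aqueous pH set so the un-ionized form predominates. Value given as the log of the octanol/water ratio.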

[3] = biological target: potassium channel hERG (Homo sapiens (Human), UniProt Q12809); assay: In vitro testing for hERG inhibition; format: biochemical; conditions: in vitro toxicity potassium channel hERG
potassium channel hERG, sequence (Q12809 whole entry): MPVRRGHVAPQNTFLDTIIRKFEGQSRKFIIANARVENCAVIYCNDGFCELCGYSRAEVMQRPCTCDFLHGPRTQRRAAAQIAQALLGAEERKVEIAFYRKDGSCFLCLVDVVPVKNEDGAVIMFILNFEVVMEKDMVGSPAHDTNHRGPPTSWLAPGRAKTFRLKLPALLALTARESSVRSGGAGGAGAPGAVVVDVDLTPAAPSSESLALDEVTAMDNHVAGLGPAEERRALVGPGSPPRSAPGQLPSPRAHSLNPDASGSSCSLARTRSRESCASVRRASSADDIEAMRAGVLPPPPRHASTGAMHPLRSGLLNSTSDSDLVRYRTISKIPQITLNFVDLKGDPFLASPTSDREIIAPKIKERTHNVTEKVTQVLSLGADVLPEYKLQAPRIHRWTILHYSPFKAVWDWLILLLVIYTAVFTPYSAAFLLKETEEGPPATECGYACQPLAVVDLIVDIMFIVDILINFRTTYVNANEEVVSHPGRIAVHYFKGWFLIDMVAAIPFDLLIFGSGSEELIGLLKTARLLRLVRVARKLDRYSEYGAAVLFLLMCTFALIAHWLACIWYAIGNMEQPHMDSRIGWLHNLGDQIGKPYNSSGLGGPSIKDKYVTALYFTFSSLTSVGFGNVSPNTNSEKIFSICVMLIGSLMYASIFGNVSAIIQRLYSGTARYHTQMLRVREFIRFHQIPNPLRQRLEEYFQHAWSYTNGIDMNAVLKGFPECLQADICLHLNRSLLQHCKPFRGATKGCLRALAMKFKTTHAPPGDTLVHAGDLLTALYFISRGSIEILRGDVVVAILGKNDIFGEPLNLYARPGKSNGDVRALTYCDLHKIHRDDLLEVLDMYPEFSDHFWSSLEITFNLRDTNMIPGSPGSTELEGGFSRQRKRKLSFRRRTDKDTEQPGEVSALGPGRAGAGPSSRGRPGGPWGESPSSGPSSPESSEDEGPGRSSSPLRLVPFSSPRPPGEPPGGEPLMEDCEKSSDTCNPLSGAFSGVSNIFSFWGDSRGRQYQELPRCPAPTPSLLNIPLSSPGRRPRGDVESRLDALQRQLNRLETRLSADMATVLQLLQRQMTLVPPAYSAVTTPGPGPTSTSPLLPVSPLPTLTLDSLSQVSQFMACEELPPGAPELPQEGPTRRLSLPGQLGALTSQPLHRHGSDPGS
Description: In vitro testing for hERG inhibition was performed in a standard assay (See: Haverkamp W, Breithardt G, Carnm A J, Janse M J, Rosen M R, Antzelevitch C, Escande D, Franz M, Malik M, Moss A and Shah R. (2000) Eur Heat J 21 (15); 1216-31).

SMILES | log P [2] | logP ([2]; octanol/water) | EC50 [1] [µM] | IC50 [3] [µM] | EC50 ([1]; Rattus norvegicus, Hippocampal neuron) [µM]
CC(C)=CC(CC(C)(C)c1ccc(C(F)(F)F)cc1)N1CCC(N2CCCCC2)CC1 (stereo not shown) [Compound 127] | 6.41 |  | 0.3 | 3.3 | 
CC(C)=CC(CC(C)(C)c1ccc(OC(C)C)cc1)N1CCC(C)(O)CC1 (stereo not shown) [Compound 180] | 4.87 |  |  | 20 | 
CC(C)=CC(CC(C)(C)c1ccc(F)cc1)N1CCC2(CC1)OCc1ccccc12 (stereo not shown) [Compound 185] | 6.16 |  |  | 3 | 
CC1(O)CCN(CCC(C)(C)c2ccc(Cl)cc2)CC1 [Compound 192] | 3.44 |  |  | 19 | 
CC(C)=CC(CC(C)(C)c1ccc(C(F)(F)F)cc1)N1CCN(C(=O)OC(C)(C)C)CC1 (stereo not shown) [Compound 200] | 6.28 |  |  | 83 | 
CC(C)=CC(CC(C)(C)c1ccc(C(F)(F)F)cc1)N1CCC(O)(c2ccccc2)CC1 (stereo not shown) [Compound 205] | 6.5 |  | 0.59 | 3.9 | 
CC(C)=CC(CC(C)(C)c1ccccc1)N1CCC(C)(O)CC1 (stereo not shown) [Compound 213] | 4.25 |  | 6.6 | 6.4 | 
CCCCC1(OC(=O)NC(C)C)CCN(C(C=C(C)C)CC(C)(C)c2ccc(F)cc2)CC1 (stereo not shown) [Compound 226] | 6.91 |  | 1.25 |  | 
CC(CC(C)(C)c1ccc(Cl)cc1)N1CCCC1CO (stereo not shown) [Compound 229] | 4.03 |  | 15 | 21 | 
CC(CC(C)(C)c1ccc(C(F)(F)F)cc1)N1CC[C@H](O)C1 (stereo partly shown) [Compound 233] | 3.79 |  | 0.26 | 24 | 
CC(C)=CC(CC(C)(C)c1ccc(C(F)(F)F)cc1)N1CCC[C@H]1CO (stereo partly shown) [Compound 236] | 5.31 |  | 15 | 20 | 
COCC1CCCN1C(C)CC(C)(C)c1ccc(Cl)cc1 (stereo not shown) [Compound 238] | 4.67 |  | 15 | 13 | 
COC[C@@H]1CCCN1[C@@H](C=C(C)C)CC(C)(C)c1ccccc1 [Compound 249] | 5.07 |  | 15 | 9.4 | 
COC[C@H]1CCCN1C(C)CC(C)(C)c1ccc(Cl)cc1 (stereo partly shown) [Compound 253] | 4.67 |  | 0.25 |  | 
COC[C@H]1CCCN1[C@@H](C)CC(C)(C)c1ccc(C(F)(F)F)cc1 [Compound 254] | 4.95 |  |  | 5 | 
COc1cc(CCC(C)(C)N2Cc3cccc(C(=O)N4CCN(C(=O)Oc5ccccc5)CC4)c3C2)ccc1O [Compound 256] | 5.01 |  | 15 |  | 
CC(C)=C[C@H](CC(C)(C)c1ccc(C(F)(F)F)cc1)N1CCC(C2CCOCC2)CC1 [Compound 261] | 6.58 |  | 0.73 |  | 
CC(C)=C[C@@H](CC(C)(C)c1ccc(C(F)(F)F)cc1)N1CCC(C2CCOCC2)CC1 [Example 262] |  | 6.58 |  |  | 1.85

Further lines, with some results ahead:

log P [2] | logP ([2]; octanol/water) | SMILES | EC50 [1] [µM] | IC50 [3] [µM] | EC50 ([1]; Rattus norvegicus, Hippocampal neuron) [µM]
4.61 |  | CC(C)=CC(CC(C)(C)c1ccc(F)cc1)N1CCC(N2CCOCC2)CC1 (stereo not shown) [Compound 126] | 0.3 | 7.4 | 
5.13 |  | CC(C)=CC(CC(C)(C)c1ccc(C(F)(F)F)cc1)N1CCC(C)(O)CC1 (stereo not shown) [Compound 129] | 1.3 | 24 | 
5.58 |  | CCOC1CCN(C(C=C(C)C)CC(C)(C)c2ccc(Cl)cc2)CC1 (stereo not shown) [Compound 136] | 1.5 | 2.1 | 
5.95 |  | CC(C)=CC(CC(C)(C)c1ccc(Cl)cc1)N1CCC(CCOC2CCOC2)CC1 (stereo not shown) [Compound 181] |  | 1.8 | 
6.79 |  | COCCCC1CCN(C(C=C(C)C)CC(C)(C)c2ccc(OC(C)(C)C)cc2)CC1 (stereo not shown) [Compound 183] |  | 2.1 | 
6.62 |  | CC(C)=CC(CC(C)(C)c1ccc(Cl)cc1)N1CCC2(CC1)OCc1ccccc12 (stereo not shown) [Compound 187] |  | 1 | 
4 |  | CC(C)=CC(COc1ccc(Cl)cc1)N1CCC(CCO)CC1 (stereo not shown) [Compound 188] |  | 0.4 | 
6.2 |  | CC(C)=CC(CC(C)(C)c1ccc(Cl)cc1)N1CCN(C(=O)OCC(C)C)CC1 (stereo not shown) [Compound 198] |  | 4.8 | 
4.22 |  | COC1CCN(C(C)CC(C)(C)c2ccc(Cl)cc2)CC1 (stereo not shown) [Compound 199] |  | 1.2 | 
3.97 |  | CC(C)=CC(CC(C)(C)c1ccccc1)N1CCC(O)CC1 (stereo not shown) [Compound 201] | 15 | 15 | 
4.79 |  | COCCC1(O)CCN(C(C=C(C)C)CC(C)(C)c2ccc(C(F)(F)F)cc2)CC1 (stereo not shown) [Compound 210] | 0.42 | 4.4 | 
6.54 |  | CCCCC1(O)CCN(C(C=C(C)C)CC(C)(C)c2ccc(C(F)(F)F)cc2)CC1 (stereo not shown) [Compound 212] | 1.8 | 27 | 
4.51 |  | COCCC1(O)CCN(C(C=C(C)C)CC(C)(C)c2ccc(Cl)cc2)CC1 (stereo not shown) [Compound 217] | 4.6 | 7.7 | 
4.05 |  | COCCC1(O)CCN(C(C=C(C)C)CC(C)(C)c2ccc(F)cc2)CC1 (stereo not shown) [Compound 218] |  | 13 | 
4.52 |  | CC(C)=CC(CC(C)(C)c1ccc(Cl)cc1)N1CC[C@H](O)C1 (stereo partly shown) [Compound 230] | 10 | 16 | 
4.79 |  | CC(C)=CC(CC(C)(C)c1ccc(C(F)(F)F)cc1)N1CC[C@H](O)C1 (stereo partly shown) [Compound 232] | 15 | 29 | 
5.04 |  | CC(C)=C[C@@H](CC(C)(C)c1ccc(Cl)cc1)N1CCC[C@@H]1CO [Compound 239] |  | 4.6 | 
4.57 |  | CC(C)=C[C@H](CC(C)(C)c1ccc(F)cc1)N1CCC[C@@H]1CO [Compound 242] |  | 14 | 
5.22 |  | COC[C@@H]1CCCN1[C@@H](C=C(C)C)CC(C)(C)c1ccc(F)cc1 [Compound 244] | 8.5 | 4.8 | 
5.22 |  | COCC1CCCN1C(C=C(C)C)CC(C)(C)c1ccc(F)cc1 (stereo not shown) [Compound 245] | > 15 | 14 | 
6.49 |  | COCCCC1CCN([C@@H](C=C(C)C)CC(C)(C)c2ccc(Cl)cc2)CC1 [Compound 292] | 1.6 |  | 

Source: patent publication US11214540B2, “Compositions for treating neurodegenerative diseases” (COGNITION THERAPEUTICS, INC., priority 2017, dated 2022)
